# From paper PMC5884648, “Relationship between the agonist activity of synthetic ligands of TRAIL-R2 and their cell surface binding modes” (Oncotarget, 2018)
# *1 amine or outer side, *2 acyl side, *3 side chain or, on linkers, in order; H or OH if unused. Where a SMILES comes first, the peptide text is derived from it. Bridges are numbered along the chain shown (N, C = ends). Roman numbers before positions name the chains, in order. X2 = NC(CCC(=O)[*:1])CCC(=O)[*:2]
# Assays:
# [1] = system: HCT116 cells; assay: Cell viability MTS assay, HCT116; assay type: cell-based, human; details: 24 hours
# Experimental: (§1) BJAB, Jurkat and HCT116 cells (10^5 cells/well) were cultured in 100 µL of culture medium in 96-flat bottom well plates. The next day, cells were treated with the indicated concentrations of the different TRAILmin/DR5 peptides. After 24 hours of treatment cell viability measurement was performed by the MTS assay according to the manufacturer specification (Promega Corporation, Madison, WI, USA).
# [2] = system: BJAB cells; assay: Cell viability MTS assay, BJAB; assay type: cell-based, human; details: 24 hours
# Experimental: as §1
# [3] = system: Jurkat cells; assay: Cell viability MTS assay, Jurkat; assay type: cell-based, human; details: 24 hours
# Experimental: as §1
# [4] = biological target: T1, human TRAIL-R2 (Homo sapiens, UniProt O14763); assay: Surface plasmon resonance on sensor-immobilized TRAIL-R2; assay type: binding; details: for koff / kon: SPR, 25° C, Langmuir model
# T1 construct: purchased Enzo Life Sciences
# T1 sequence (O14763 56-440): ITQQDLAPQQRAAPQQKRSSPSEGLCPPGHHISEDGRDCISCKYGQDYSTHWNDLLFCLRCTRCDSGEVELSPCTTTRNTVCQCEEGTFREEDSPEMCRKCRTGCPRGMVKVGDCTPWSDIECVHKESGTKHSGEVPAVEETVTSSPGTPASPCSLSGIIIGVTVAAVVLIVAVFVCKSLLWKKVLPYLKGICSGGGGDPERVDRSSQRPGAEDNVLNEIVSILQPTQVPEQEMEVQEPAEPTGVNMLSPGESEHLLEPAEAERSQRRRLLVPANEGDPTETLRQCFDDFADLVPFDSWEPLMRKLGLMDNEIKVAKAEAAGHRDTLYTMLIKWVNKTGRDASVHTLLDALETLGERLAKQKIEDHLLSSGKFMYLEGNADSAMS
# Experimental: SPR assays were performed on a Biacore T200™, at 25° C. The running buffer was HBS-EP [10 mM HEPES (pH 7.4) containing 0.15 M NaCl, 3.4 mM EDTA and 0.005% (v/v) Tween P20]. The human TRAIL-R2 (Enzo Life Sciences, Farmingdale, NY, USA) receptor was immobilized on a sCM5 sensor chip (GE Healthcare) using the standard amine coupling procedure. The receptors were diluted in 10 mM acetate buffer (pH 5.0) at a concentration of 5 μg/mL. The TRAIL-R2 immobilization level on the sensor chip was 430 RU. Peptides were injected at a flow rate of 5 μL/min for 120 s and allowed to dissociate for an additional 420 s. Surfaces were then regenerated for 5 s with 25 mM HCl. All binding curves were double-referenced (i.e. subtraction of the data of the empty flow cell followed by the subtraction of the data from a running buffer injection cycle).
# Double-referenced SPR binding curves sets were fitted globally using the BIAevaluation 4.1.1 (GE Healthcare Biacore) or TraceDrawer (Ridgeview Diagnostics AB, Uppsala, Sweden) softwares. The signal recorded with the LigandTracer on an empty spot or slide was subtracted from that recorded on cell-carrying slides. The resulting binding curves were analyzed by kinetic distribution analysis using the tool Interaction Map (Ridgeview Diagnostics AB, Uppsala, Sweden). Interaction Map decomposes the kinetic curve recorded for the binding of a homogeneous ligand to a heterogeneous group of targets into its different components. Results are represented as interaction maps (kon versus koff, log scale), where the color of each populated area represents its degree of contribution to the kinetic curve (red = high contribution, blue = low contribution).
# [5] = TRAIL-R2 surface 1, one:one interaction model
# [6] = TRAIL-R2 surface 2, one:one interaction model
SMILES,apoptosis induction in HCT116 cells [1],apoptosis induction in BJAB cells [2],apoptosis induction in Jurkat cells [3],koff [4] [s⁻¹],kon [4] [M⁻¹ s⁻¹],"Rmax [4, 5]","Rmax [4, 6]"
"CC[C@H](C)[C@@H]1NC(=O)[C@H](CCCNC(=N)N)NC(=O)[C@H](CC(N)=O)NC(=O)[C@H](CC(=O)O)NC(=O)[C@H](CC(C)C)NC(=O)[C@@H](NC(=O)[C@H](CC(=O)O)NC(=O)[C@H](Cc2c[nH]c3ccccc23)NC(C)=O)CSSC[C@@H](C(=O)N[C@H](C(=O)N[C@@H](CCCCNC(=O)CCC(N)CCC(=O)NCCCC[C@H](NC(=O)[C@@H](NC(=O)[C@@H]2CSSC[C@H](NC(=O)[C@H](CC(=O)O)NC(=O)[C@H](Cc3c[nH]c4ccccc34)NC(C)=O)C(=O)N[C@@H](CC(C)C)C(=O)N[C@@H](CC(=O)O)C(=O)N[C@@H](CC(N)=O)C(=O)N[C@@H](CCCNC(=N)N)C(=O)N[C@@H]([C@@H](C)CC)C(=O)NCC(=O)N[C@@H](CCCNC(=N)N)C(=O)N[C@@H](CCCNC(=N)N)C(=O)N[C@@H](CCC(N)=O)C(=O)N2)C(C)C)C(=O)N[C@@H](CC(C)C)C(N)=O)C(=O)N[C@@H](CC(C)C)C(N)=O)C(C)C)NC(=O)[C@H](CCC(N)=O)NC(=O)[C@H](CCCNC(=N)N)NC(=O)[C@H](CCCNC(=N)N)NC(=O)CNC1=O (some centres unmarked) [1d] (I: Ac-WDCLDNRIGRRQCVKL-NH2 / II: Ac-WDCLDNRIGRRQCVKL-NH2; disulfide I:3-I:13, II:3-II:13; linker I:15-II:15 via X2; N-terminus and C-terminus assumed)",strong resistance,underwent apoptosis,strong resistance,0.0014,28000,38,13
CC[C@H](C)[C@@H]1NC(=O)[C@H](CCCNC(=N)N)NC(=O)[C@H](CC(N)=O)NC(=O)[C@H](CC(=O)O)NC(=O)[C@H](CC(C)C)NC(=O)[C@@H](NC(=O)[C@H](CC(=O)O)NC(=O)[C@H](Cc2c[nH]c3ccccc23)NC(C)=O)CSSC[C@@H](C(=O)N[C@H](C(=O)N[C@@H](CCCCN)C(=O)N[C@@H](CC(C)C)C(N)=O)C(C)C)NC(=O)[C@H](CCC(N)=O)NC(=O)[C@H](CCCNC(=N)N)NC(=O)[C@H](CCCNC(=N)N)NC(=O)CNC1=O [1m] (Ac-WDCLDNRIGRRQCVKL-NH2; disulfide 3-13; N-terminus and C-terminus assumed),–,–,–,0.0026,5300,33,11
